Assay results published in patent publication US9682092B2, “Boron-containing small molecules as anti-inflammatory agents” (ANACOR PHARMACEUTICALS, INC., priority 2006, dated 2017).

melting point [°C] | Compound
107 to 111 | Cc1cccc2c1B(O)OC2 [C65, 7-methylbenzo[c][1,2]oxaborol-1(3H)-ol]
176 to 185 | CC(=O)Nc1ccc2c(c1)B(O)OC2 [C63, N-(1-hydroxy-1,3-dihydrobenzo[c][1,2]oxaborol-6-yl)acetamide]
175 to 184 | O=S(=O)(Nc1ccc2c(c1)B(O)OC2)c1ccccc1 [C62, N-(1-hydroxy-1,3-dihydrobenzo[c][1,2]oxaborol-6-yl)benzenesulfonamide]
159 to 164 | OB1OCc2cc(F)c(NCc3ccccc3)cc21 [C71, 6-(benzylamino)-5-fluorobenzo[c][1,2]oxaborol-1(3H)-ol]
142 to 145 | Nc1cc2c(cc1F)COB2O [C70, 6-amino-5-fluorobenzo[c][1,2]oxaborol-1(3H)-ol]
119 to 130 | OB1OCc2ccc(Oc3ccc(Cl)cc3)cc21 [C20, 6-(4-Chlorophenoxy)-1,3-dihydro-1-hydroxy-2,1-benzoxaborole]
97 to 101 | OB1OCc2ccc(Oc3ccc(OC(F)(F)F)cc3)cc21 [C29, 6-(4-trifluoromethoxyphenoxy)-1,3-dihydro-1-hydroxy-2,1-benzoxaborole]
135 to 140 | OB1OCc2ccc(-n3ccc4ccccc43)cc21 [C55, 6-(1H-indol-1-yl)benzo[c][1,2]oxaborol-1(3H)-ol]
147 to 150 | N#Cc1cccc(COc2ccc3c(c2)COB3O)c1 [C96, 3-((1-hydroxy-1,3-dihydrobenzo[c][1,2]oxaborol-5-yloxy)methyl)benzonitrile]
161 to 165 | Cc1cc(Oc2ccc(C#N)cc2)ccc1B(O)O [C99, 4-(4-Cyanophenoxy)-2-Methylphenylboronic acid]
95 to 100 | COc1ccc(Sc2ccc3c(c2)B(O)OC3)cc1 [C32, 6-(4-Methoxyphenylthio)-1,3-dihydro-1-hydroxy-2,1-benzoxaborole]
157 to 161 | OB1OCc2ccc(Sc3ccc(Cl)cc3)cc21 [C88, 6-(4-chlorophenylthio)benzo[c][1,2]oxaborol-1(3H)-ol]
135 to 138 | OB1OCc2ccc(N3CCN(c4ccccn4)CC3)cc21 [C48, 6-(4-(pyridin-2-yl)piperazin-yl)benzo[c][1,2]oxaborol-1(3H)-ol]
159 to 163 | OB1OCc2ccc(-n3cc(Sc4ccccc4)c4ccccc43)cc21 [C66, 6-(3-(phenylthio)-1H-indol-1-yl)benzo[c][1,2]oxaborol-1(3H)-ol]
146 to 149 | N#Cc1cccc(Oc2ccc3c(c2)B(O)OC3)c1 [C19, 6-(3-Cyanophenoxy)-1,3-dihydro-1-hydroxy-2,1-benzoxaborole]
102 to 104 | COc1ccc2c(c1)COB2O [C7, 1,3-Dihydro-1-hydroxy-5-methoxy-2,1-benzoxaborole]
163 to 166 | O=C(O)COc1ccc2c(c1)COB2O [C42, 2-(1-hydroxy-1,3-dihydrobenzo[c][1,2]oxaborol-5-yloxy)acetic acid]
159 to 161 | OB1OCc2ccc(N3CCN(c4ccccc4)CC3)cc21 [C53, 6-(4-phenylpiperazin-1-yl)benzo[c][1,2]oxaborol-1(3H)-ol]
153 to 162 | N#Cc1ccc(Oc2cccc(B(O)O)c2)cc1 [C98, 3-(4-Cyanophenoxy)phenylboronic acid]
120 to 124 | OB1OCc2cccc(F)c21 [C86, 7-fluorobenzo[c][1,2]oxaborol-1(3H)-ol]
194 to 198 | N#Cc1ccc(Oc2ccc(B(O)O)cc2)cc1
134 to 137 | CCOC(=O)COc1ccc2c(c1)COB2O [C41, Ethyl 2-(1-hydroxy-1,3-dihydrobenzo[c][1,2]oxaborol-5-yloxy)acetate]
190 to 195 | O=C(COc1ccc2c(c1)COB2O)N1CCN(c2ncccn2)CC1 [C47, 2-(1-hydroxy-1,3-dihydrobenzo[c][1,2]oxaborol-5-yloxy)-1-(4-(pyrimidin-2-yl)piperazin-1-yl)ethanone]
96 to 98 | CCCCC(=O)c1cccc(COc2ccc3c(c2)COB3O)c1 [C45, 1-(3-((1-hydroxy-1,3-dihydrobenzo[c][1,2]oxaborol-5-yloxy)methyl)phenyl)pentan-1-one]
157 to 163 | O=S(=O)(c1ccc(Cl)cc1)c1ccc2c(c1)B(O)OC2 [C90, 6-(4-chlorophenylsulfonyl)benzo[c][1,2]oxaborol-1(3H)-ol]
158 to 163 | O=C(COc1ccc2c(c1)COB2O)N1CCCCC1 [C46, 2-(1-hydroxy-1,3-dihydrobenzo[c][1,2]oxaborol-5-yloxy)-1-(piperidin-1-yl)ethanone]
85 to 95 | CN(c1ccc2c(c1)COB2O)S(=O)(=O)c1ccccc1 [C30, 5-(N-Methyl-N-phenylsulfonylamino)-1,3-dihydro-1-hydroxy-2,1-benzoxaborole]
126 to 133 | OB1OCc2ccc(NCc3ccccc3)cc21 [C77, 6-(benzylamino)benzo[c][1,2]oxaborol-1(3H)-ol]

melting point [°C] | Compound
115 to 123 | OB1OCc2ccc(N(Cc3ccccc3)Cc3ccccc3)cc21 [C78, 6-(dibenzylamino)benzo[c][1,2]oxaborol-1(3H)-ol]
154 to 161 | [O-][S+](c1ccc(Cl)cc1)c1ccc2c(c1)B(O)OC2 (stereo not shown) [C89, 6-(4-chlorophenylsulfinyl)benzo[c][1,2]oxaborol-1(3H)-ol]
145 to 151 | OB1OCc2ccc(-n3cc(Sc4ccccc4)c4cc(Cl)ccc43)cc21 [C80, 6-(5-chloro-3-(phenylthio)-1H-indol-1-yl)benzo[c][1,2]oxaborol-1(3H)-ol]
135 to 141 | COc1ccc2c(c1)c(Sc1ccccc1)cn2-c1ccc2c(c1)B(O)OC2 [C72, 6-(5-methoxy-3-(phenylthio)-1H-indol-1-yl)benzo[c][1,2]oxaborol-1(3H)-ol]
142 to 152 | O=S(=O)(c1ccccc1)N(c1ccc2c(c1)COB2O)S(=O)(=O)c1ccccc1 [C91, N-(1-hydroxy-1,3-dihydrobenzo[c][1,2]oxaborol-5-yl)-N-(phenylsulfonyl)benzenesulfonamide]
> 225 | N#CCCSc1cn(-c2ccc3c(c2)B(O)OC3)c2ccc(Cl)cc12 [C76, 3-(5-chloro-1-(1-hydroxy-1,3-dihydrobenzo[c][1,2]oxaborol-6-yl)-1H-indol-3-ylthio)propanenitrile]
241 to 250 | OCc1cccc2c1B(O)OC2 [C64, 7-(hydroxymethyl)benzo[c][1,2]oxaborol-1(3H)-ol]
148 to 153 | N#Cc1ccc(Oc2cccc3c2B(O)OC3)cc1 [C74, 4-(1-hydroxy-1,3-dihydrobenzo[c][1,2]oxaborol-7-yloxy)benzonitrile]
180 to 192 | COc1ccc(S(=O)(=O)c2ccc3c(c2)B(O)OC3)cc1 [C33, 6-(4-Methoxyphenylsulfonyl)-1,3-dihydro-1-hydroxy-2,1-benzoxaborole]
128 to 132 | OB1OCc2ccc(N3CCOCC3)cc21 [C56, 6-morpholinobenzo[c][1,2]oxaborol-1(3H)-ol]
126 to 129 | COc1ccc(Oc2ccc3c(c2)B(O)OC3)cc1 [C31, 6-(4-Methoxyphenoxy)-1,3-dihydro-1-hydroxy-2,1-benzoxaborole]
> 257 | OCc1cc2c(cc1Br)COB2O [C59, 5-bromo-6-(hydroxymethyl)benzo[c][1,2]oxaborol-1(3H)-ol]
121 to 124 | OB1OCc2ccc(Sc3ccccc3)cc21 [C28, 6-Phenylthio-1,3-dihydro-1-hydroxy-2,1-benzoxaborole]
> 250 | OB1OCc2cc3c(cc21)COB3O [C60, 3,7-dihydro-1,5-dihydroxy-1H,3H-Benzo[1,2-c:4,5-c′]bis[1,2]oxaborole]
110 to 117.5 | OB1OCc2ccc(F)cc21 [C13, 1,3-Dihydro-6-fluoro-1-hydroxy-2,1-benzoxaborole]
120 to 124 | COc1ccc2c(ccn2-c2ccc3c(c2)B(O)OC3)c1 [C68, 6-(5-methoxy-1H-indol-1-yl)benzo[c][1,2]oxaborol-1(3H)-ol]
111 to 113 | OB1OCc2ccc(Sc3ccc(C(F)(F)F)cc3)cc21 [C92, 6-(4-(trifluoromethyl)phenylthio)benzo[c][1,2]oxaborol-1(3H)-ol]
124 to 128 | Cc1ccc2c(c1)COB2O [C8, 1,3-Dihydro-1-hydroxy-5-methyl-2,1-benzoxaborole]
99 to 104 | OB1OCc2ccc(Sc3cccs3)cc21 [C43, 6-(thiophen-2-ylthio)benzo[c][1,2]oxaborol-1(3H)-ol]
185 to 189 | OB1OCc2cc3c(cc21)OCO3 [C69, 5,6-methylenedioxybenzo[c][1,2]oxaborol-1(3H)-ol.]
149 to 154 | OB1OCc2ccc(-n3ccc4cc(Cl)ccc43)cc21 [C75, 6-(5-chloro-1H-indol-1-yl)benzo[c][1,2]oxaborol-1(3H)-ol]
162 to 167 | O=[N+]([O-])c1cc2c(cc1F)COB2O [C58, 5-fluoro-6-nitrobenzo[c][1,2]oxaborol-1(3H)-ol]
95 to 99 | OB1OCc2ccc(Oc3ccccc3)cc21 [C21, 6-Phenoxy-1,3-dihydro-1-hydroxy-2,1-benzoxaborole]
98 to 105 | OB1OCc2ccc(Oc3ccc(C(F)(F)F)cc3)cc21 [C87, 6-(4-(trifluoromethyl)phenoxy)benzo[c][1,2]oxaborol-1(3H)-ol]
149 to 154 | COc1ccc2c(c1)c(SCCC#N)cn2-c1ccc2c(c1)B(O)OC2 [C73, 3-(1-(1-hydroxy-1,3-dihydrobenzo[c][1,2]oxaborol-6-yl)-5-methoxy-1H-indol-3-ylthio)propanenitrile]
135 to 141 | N#CCCSc1cn(-c2ccc3c(c2)B(O)OC3)c2ccccc12 [C67, 3-(1-(1-hydroxy-1,3-dihydrobenzo[c][1,2]oxaborol-6-yl)-1H-indol-3-ylthio)propanenitrile]
79 to 88 | [O-][S+](c1ccc(C(F)(F)F)cc1)c1ccc2c(c1)B(O)OC2 (stereo not shown) [C93, 6-(4-(trifluoromethyl)phenylsulfinyl)benzo[c][1,2]oxaborol-1(3H)-ol]
